The nature of the series: Test for solubility of a UV-A absorber in the oil. Type of series: physicochemical. Conditions: for Solubility of a UV-A absorber: UV-A absorber dissolved to saturation in the compound. How it is done: Then, absorbance (A) of a peak observed near 350 nm was measured. Solubility was figured out from a value calculated by the following equation and a weight of a sample prepared. The measurement temperatures are at room temperature ([…]) and 50° C.

Regarding `CCC(CC(CC)C(=O)OC)C(=O)OC` (stereo not drawn) [Compound 3, dimethyl 2,4-diethylglutarate], the “Solubility of a UV-A absorber” value came out at 40.7 g/100 g (50° C.) and 23.1 g/100 g (room temperature (25° C.)). For the same compound, the “Solubility of the UV-A absorber, in words” value (in comparison to comparative compound 1) was “excellent”.
